Read-outs that look alike come from different tables or passages of the source.
How the values were obtained:
[1] = system: P. aeruginosa strains PAO1 and PA14; details: cited from earlier work
[2] = system: PaPiuA; experiment: Isothermal microcalorimetry titration; type: binding, Pseudomonas aeruginosa; details: 25° C.
Procedure: Titrations were performed using 5 μl injections of 164 μM (using ε280=6 714 1 mol-1 cm-1 Li et al. Chemistry and Biology 2011) of the ligand in 17 μM of purified PaPiuA (Moynie et al. Antimicrobial Agents and Chemotherapy 2017) in the same buffer (50 mM sodium phosphate pH 7.5, 50 mM NaCl, 0.8% OctylPOE). The heats of dilution measured from injection of the ligands into the buffer were subtracted from the experimental data and titration curves were fitted to a single site binding using Origin software.

[3] = system: pyoverdine production in P. putida KT2440; details: cited from earlier work
[4] = system: Gram-positive bacteria; details: Li et al., 2011; cited from earlier work
[5] = system: P. putida (PP KT2440, PP RW10S); experiment: Zone of inhibition / growth in defined media; type: cell-based, Pseudomonas putida
Procedure: (§1) Bacterial strains (PA14, PAO1, KT2440, and RW10S1) were grown at 37° C. in TSB medium or on agar plates.
(§2) 100 μL overnight culture was added to TSB or M9 agar plates and bacterial lawns were ‘created’ using Roll & Grow Plating Beads. Compound stock solution 20 μL of a 250 μM solution, 10 μL of a 10 mg/mL gentamicin solution, and 20 μL of a 250 μM DMSO control (stock=10% DMSO/H2O) was absorbed into discs and allowed to dry. Discs were placed on the plates and incubated at 37° C. for 24 hours. Assay was run in triplicate from separate overnight cultures.

[6] = CAS assay (CAS agar); type: physicochemical; details: at concentrations ranging from 6-100 μM; reduced affinity compared to EDTA
Procedure: CAS agar was prepared as described previously (Cordero, et al., PNAS, 2012, 109, 49, 29059). 10 μL of solution at given concentration were dosed onto plates and imaged after 24 hours. Stock solutions were made in 10% DMSO/H2O.

[7] = system: P. aeruginosa PA01; experiment: IC50 assay (OD595, 24 h) against PA01; type: cell-based; details: Pseudomonas aeruginosa
Procedure: (§3) P. aeruginosa PA01, and PA14 were gifts from Prof. George O'Toole (Dartmouth Medical School). Bacterial cultures were grown from freezer stocks overnight (16-24 hr) with shaking at 37° C. in Tryptic Soy Broth (TSB) media (10 mL). Growth curves were obtained for PA01 and PA14 to determine the OD of each strain in exponential growth; OD readings at 595 nm were taken every 10 minutes for 6 hours in a plate reader at 37° C. with shaking and repeated six times. (see FIGS. 6A and 6B) Compounds were serially diluted in sterile DI water from a stock solution (1 mM in 10% DMSO/90% H2O) to yield twenty-four test concentrations. Overnight cultures were diluted 1:100 in 5 mL fresh media and grown with shaking at 37° C. to an OD of 0.32 (see growth curves). Bacteria were diluted to a concentration of 0.004 using the following equation: (x μL O/N)(OD reading)=(0.004)(volume needed) and 100 μL was inoculated into each well of a flat-bottom 96-well plate (Corning 3370) containing 100 μL of compound solution. Plates were incubated statically at 37° C. for 24 hours, upon which time the OD at 595 nm was measured using a plate reader. IC50 values were calculated by fitting the OD readings vs. concentration with a 4 parameter logistic model. Controls were prepared by serially diluting a 10% DMSO/90% H2O the same as the compound stock solution. Compounds were tested in triplicate from separate O/N cultures and results averaged.

[8] = Kaduskar et al., 2016; cited from earlier work
[9] = system: P. aeruginosa (PA14, PA01); experiment: Zone of inhibition / growth in defined media; type: cell-based, Pseudomonas aeruginosa
Procedure: as §1, §2

[10] = system: P. aeruginosa PA14; experiment: IC50 assay (OD595, 24 h) against PA14; type: cell-based, Pseudomonas aeruginosa; details: Pseudomonas aeruginosa
Procedure: P. aeruginosa PA01, and PA14 were gifts from Prof. George O'Toole (Dartmouth Medical School). Bacterial cultures were grown from freezer stocks overnight (16-24 hr) with shaking at 37° C. in Tryptic Soy Broth (TSB) media (10 mL). Growth curves were obtained for PA01 and PA14 to determine the OD of each strain in exponential growth; OD readings at 595 nm were taken every 10 minutes for 6 hours in a plate reader at 37° C. with shaking and repeated six times. (see FIGS. 6A and 6B)
as §3, with “Compounds” for “P. aeruginosa PA01, and PA14 were gifts from Prof. George O'Toole (Dartmouth Medical School). Bacterial cultures were grown from freezer stocks overnight (16-24 hr) with shaking at 37° C. in Tryptic Soy Broth (TSB) media (10 mL). Growth curves were obtained for PA01 and PA14 to determine the OD of each strain in exponential growth; OD readings at 595 nm were taken every 10 minutes for 6 hours in a plate reader at 37° C. with shaking and repeated six times. (see FIGS. 6A and 6B) Compounds”
Compounds were serially diluted in sterile DI water from a stock solution (10% DMSO/H2O) yielding 24 test concentrations. Bacteria were diluted to a final concentration of 0.004 from regrown overnight culture according to the following equation: (xμL bacterial culture)(OD reading)=(0.004)(total volume needed) and 100 μL was inoculated into each well of a flat-bottom 96-well plate (Corning 3370) containing 100 μL of compound solution. Plates were incubated statically at 37° C. for 24 hours upon which time OD at 595 nm was measured using a plate reader (Spectra Max 190). IC50 values were calculated using OD values and concentrations with a 4-parameter logistic model. Control experiments used a 10% DMSO/H2O stock serially diluted to the same 24 concentrations. Compounds were tested in triplicate from three independent overnight cultures.

CCCCCC[C@H](CCCCC[C@@H](O)C(N)=O)OC(=O)[C@@H]1CC=CN1C(=O)c1ccccc1O [1 (2R,8R), promysalin]
activity against PA (literature) [1]: nM concentrations
binding to PiuA (isothermal microcalorimetry) [2]: no appreciable interaction
production of pyoverdine in P. putida KT2440 [3]: inhibits
susceptibility of Gram-positive bacteria [4]: no susceptibility
zone of inhibition ([5]; M9, succinate as sole carbon source, iron-limiting, both PP strains including producing organism): clear zone of inhibition
activity in TSB and glucose+Fe media ([5]; P. putida): not P. putida
Fe^3+ chelation on CAS agar [6]: positive
IC50 ([7]; average of EXPT 1-3, read-out: IC50 PA01 AVG): 4120 nM
IC50 ([7]; averages of three independent experiments, read-out: IC50 PA01): 4100 nM
IC50 ([7]; single trial 1, read-out: IC50 PA01 EXPT 1): 4440 nM
IC50 ([7]; single trial 2, read-out: IC50 PA01 EXPT 2): 4370 nM
IC50 ([7]; single trial 3, read-out: IC50 PA01 EXPT 3): 3540 nM
stability under mildly acidic conditions [8]: instability
activity in TSB and glucose+Fe media [9]: active
IC50 ([10]; average of EXPT 1-3, read-out: IC50 PA14 AVG): 67 nM
IC50 ([10]; averages of three independent experiments, read-out: IC50 PA14): 67 nM
IC50 ([10]; preliminary screening for probe design, read-out: IC50 in PA14): 63 nM
IC50 ([10]; single trial 1, read-out: IC50 PA14 EXPT 1): 100 nM
IC50 ([10]; single trial 2, read-out: IC50 PA14 EXPT 2): 20 nM
IC50 ([10]; single trial 3, read-out: IC50 PA14 EXPT 3): 80 nM

Reference: patent publication US10647671B2, “Promysalin analogues and methods of use thereof” (Temple University—Of The Commonwealth System of Higher …, priority 2016, dated 2020)
